According to publication PMC3792642 (Acta Crystallographica Section D: Biological Crystallography, 2013):
Peptide text beside a SMILES is read from it.

Tested on: MtbDsbA catalytic Cys89 to Ala mutant
Format: binding, Mycobacterium tuberculosis H37Rv
Conditions: ITC, under the conditions tested

## CC(=O)N[C@@H](Cc1ccc(O)cc1)C(=O)N[C@H](C(=O)N1CCC[C@H]1C(=O)N[C@@H](CO)C(=O)N[C@@H](CS)C(=O)N[C@@H](CC(N)=O)C(=O)N[C@H](C(N)=O)C(C)C)C(C)C [YVPSCNV] (Ac-YVPSCNV-NH2)
  Binding of VKOR peptide to the MtbDsbA catalytic Cys89 to Ala mutant: abolished binding
